Source: ChEMBL document CHEMBL4308841, “Synthesis, in vitro antiproliferative activity, and kinase inhibitory effects of pyrazole-containing diarylureas and diarylamides” (Eur J Med Chem, 2018)

Key:
[1] = tested on: SN12C; test: Growth inhibition of human SN12C cells assessed as cell growth at 0.1 uM incubated for 48 hrs by sulforhodamine B assay relative to control; format: functional; details: read-out: Activity
[2] = tested on: A549; test: Growth inhibition of human A549/ATCC cells incubated for 48 hrs by sulforhodamine B assay; format: functional, cell-based; details: A549, 48 h
[3] = tested on: OVCAR-8; test: Growth inhibition of human OVCAR8 cells assessed as cell growth at 0.1 uM incubated for 48 hrs by sulforhodamine B assay relative to control; format: functional; details: OVCAR-8, 48 h, read-out: Activity
[4] = tested on: SK-OV-3; test: Growth inhibition of human SKOV3 cells incubated for 48 hrs by sulforhodamine B assay; format: functional, cell-based; details: SK-OV-3, 48 h
[5] = tested on: UACC-62; test: Growth inhibition of human UACC62 cells incubated for 48 hrs by sulforhodamine B assay; format: functional, cell-based; details: UACC-62, 48 h
[6] = tested on: NCI-H522; test: Growth inhibition of human NCI-H522 cells assessed as cell growth at 0.1 uM incubated for 48 hrs by sulforhodamine B assay relative to control; format: functional; details: NCI-H522, 48 h, read-out: Activity
[7] = tested on: CAKI-1; test: Growth inhibition of human Caki1 cells assessed as cell growth at 1 uM incubated for 48 hrs by sulforhodamine B assay relative to control; format: functional; details: CAKI-1, 48 h, read-out: Activity
[8] = tested on: IGROV-1; test: Growth inhibition of human IGROV1 cells assessed as cell growth at 0.01 uM incubated for 48 hrs by sulforhodamine B assay relative to control; format: functional; details: IGROV-1, 48 h, read-out: Activity
[9] = tested on: HCC 2998; test: Growth inhibition of human HCC2998 cells assessed as cell growth at 0.1 uM incubated for 48 hrs by sulforhodamine B assay relative to control; format: functional; details: HCC 2998, 48 h, read-out: Activity
[10] = tested on: SW-620; test: Growth inhibition of human SW620 cells assessed as cell growth at 0.01 uM incubated for 48 hrs by sulforhodamine B assay relative to control; format: functional; details: SW-620, 48 h, read-out: Activity
[11] = tested on: K562; test: Growth inhibition of human K562 cells assessed as cell growth at 1 uM incubated for 48 hrs by sulforhodamine B assay relative to control; format: functional; details: K562, 48 h, read-out: Activity
[12] = tested on: DU-145; test: Growth inhibition of human DU145 cells assessed as cell growth at 0.1 uM incubated for 48 hrs by sulforhodamine B assay relative to control; format: functional; details: DU-145, 48 h, read-out: Activity
[13] = tested on: A498; test: Growth inhibition of human A498 cells assessed as cell growth at 1 uM incubated for 48 hrs by sulforhodamine B assay relative to control; format: functional; details: A498, 48 h, read-out: Activity
[14] = tested on: HCT-15; test: Growth inhibition of human HCT15 cells assessed as cell growth at 1 uM incubated for 48 hrs by sulforhodamine B assay relative to control; format: functional; details: HCT-15, 48 h, read-out: Activity
[15] = tested on: HCC 2998; test: Growth inhibition of human HCC2998 cells assessed as cell growth at 1 uM incubated for 48 hrs by sulforhodamine B assay relative to control; format: functional; details: HCC 2998, 48 h, read-out: Activity
[16] = tested on: M14; test: Growth inhibition of human M14 cells assessed as cell growth at 100 uM incubated for 48 hrs by sulforhodamine B assay relative to control; format: functional; details: M14, 48 h, read-out: Activity
[17] = tested on: HCT-116; test: Growth inhibition of human HCT116 cells assessed as cell growth at 1 uM incubated for 48 hrs by sulforhodamine B assay relative to control; format: functional; details: HCT-116, 48 h, read-out: Activity
[18] = tested on: HL-60(TB); test: Growth inhibition of human HL-60(TB) cells incubated for 48 hrs by sulforhodamine B assay; format: functional, cell-based; details: HL-60, 48 h
[19] = tested on: A549; test: Growth inhibition of human A549/ATCC cells assessed as cell growth at 1 uM incubated for 48 hrs by sulforhodamine B assay relative to control; format: functional; details: A549, 48 h, read-out: Activity
[20] = tested on: A498; test: Growth inhibition of human A498 cells assessed as cell growth at 0.1 uM incubated for 48 hrs by sulforhodamine B assay relative to control; format: functional; details: A498, 48 h, read-out: Activity
[21] = tested on: OVCAR-5; test: Growth inhibition of human OVCAR5 cells assessed as cell growth at 0.1 uM incubated for 48 hrs by sulforhodamine B assay relative to control; format: functional; details: OVCAR-5, 48 h, read-out: Activity
[22] = tested on: UACC-62; test: Growth inhibition of human UACC62 cells assessed as cell growth at 100 uM incubated for 48 hrs by sulforhodamine B assay relative to control; format: functional; details: UACC-62, 48 h, read-out: Activity
[23] = tested on: SK-OV-3; test: Growth inhibition of human SKOV3 cells assessed as cell growth at 0.1 uM incubated for 48 hrs by sulforhodamine B assay relative to control; format: functional; details: SK-OV-3, 48 h, read-out: Activity
[24] = tested on: MDA-MB-231; test: Growth inhibition of human MDA-MB-231 cells assessed as cell growth at 100 uM incubated for 48 hrs by sulforhodamine B assay relative to control; format: functional; details: MDA-MB-231, 48 h, read-out: Activity
[25] = tested on: BT-549; test: Growth inhibition of human BT549 cells assessed as cell growth at 0.01 uM incubated for 48 hrs by sulforhodamine B assay relative to control; format: functional; details: BT-549, 48 h, read-out: Activity
[26] = tested on: SNB-19; test: Growth inhibition of human SNB19 cells assessed as cell growth at 0.01 uM incubated for 48 hrs by sulforhodamine B assay relative to control; format: functional; details: SNB-19, 48 h, read-out: Activity
[27] = tested on: HCT-116; test: Growth inhibition of human HCT116 cells assessed as cell growth at 0.01 uM incubated for 48 hrs by sulforhodamine B assay relative to control; format: functional; details: HCT-116, 48 h, read-out: Activity
[28] = tested on: NCI-H322M; test: Growth inhibition of human NCI-H322M cells assessed as cell growth at 1 uM incubated for 48 hrs by sulforhodamine B assay relative to control; format: functional; details: read-out: Activity
[29] = tested on: SK-MEL-2; test: Growth inhibition of human SK-MEL-2 cells assessed as cell growth at 100 uM incubated for 48 hrs by sulforhodamine B assay relative to control; format: functional; details: SK-MEL-2, 48 h, read-out: Activity
[30] = tested on: SK-MEL-2; test: Growth inhibition of human SK-MEL-2 cells assessed as cell growth at 0.01 uM incubated for 48 hrs by sulforhodamine B assay relative to control; format: functional; details: SK-MEL-2, 48 h, read-out: Activity
[31] = tested on: SNB-75; test: Growth inhibition of human SNB75 cells assessed as cell growth at 0.01 uM incubated for 48 hrs by sulforhodamine B assay relative to control; format: functional; details: SNB-75, 48 h, read-out: Activity
[32] = read-out: LC50 (the source's name)
[33] = read-out: pLC50 (the source's name) (converted)

O=C(Nc1cccc(-n2cc(-c3ccncc3)c(-c3cc(O)cc(Cl)c3)n2)c1)Nc1ccc(Cl)c(Cl)c1
growth at 0.1 µM [1]: 95% | IC50 [2]: 1.96 µM | GI50 ([2]; read-out: GI50): 1.96 µM | CC50 [2, 32]: > 100 µM | TGI ([2]; read-out: TGI): 75.4 µM | GI50 ([2]; read-out: pGI50 (converted)): 1.95 µM | CC50 [2, 33]: > 100 µM | TGI ([2]; read-out: pTGI (converted)): 7.59 µM | growth at 0.1 µM [3]: 97% | GI50 ([4]; read-out: GI50): 3.42 µM | CC50 [4, 32]: > 100 µM | TGI ([4]; read-out: TGI): 94.3 µM | GI50 ([4]; read-out: pGI50 (converted)): 3.39 µM | CC50 [4, 33]: > 100 µM | TGI ([4]; read-out: pTGI (converted)): 9.33 µM | IC50 [5]: 1.69 µM | GI50 ([5]; read-out: GI50): 1.59 µM | CC50 [5, 32]: 5.38 µM | TGI ([5]; read-out: TGI): 37.6 µM | GI50 ([5]; read-out: pGI50 (converted)): 1.7 µM | CC50 [5, 33]: 8.32 µM | TGI ([5]; read-out: pTGI (converted)): 3.72 µM | growth at 0.1 µM [6]: 92% | growth at 1 µM [7]: 54% | growth at 0.01 µM [8]: 98% | growth at 0.1 µM [9]: 110% | growth at 0.01 µM [10]: 96% | growth at 1 µM [11]: 83% | growth at 0.1 µM [12]: 104% | growth at 1 µM [13]: 75% | growth at 1 µM [14]: 75% | growth at 1 µM [15]: 96% | growth at 100 µM [16]: -69% | growth at 1 µM [17]: 82% | GI50 ([18]; read-out: GI50): 3.02 µM | LC50 ([18]; read-out: LC50): > 100 µM | GI50 ([18]; read-out: pGI50 (converted)): 3.02 µM | LC50 ([18]; read-out: pLC50 (converted)): > 100 µM | growth at 1 µM [19]: 75% | growth at 0.1 µM [20]: 94% | growth at 0.1 µM [21]: 90% | growth at 100 µM [22]: -74% | growth at 0.1 µM [23]: 103% | growth at 100 µM [24]: -24% | growth at 0.01 µM [25]: 94% | growth at 0.01 µM [26]: 97% | growth at 0.01 µM [27]: 101% | growth at 1 µM [28]: 59% | growth at 100 µM [29]: -52% | growth at 0.01 µM [30]: 59% | growth at 0.01 µM [31]: 94%

COc1cc(Cl)cc(-c2nn(-c3cccc(NC(=O)Nc4cc(C(F)(F)F)cc(C(F)(F)F)c4)c3)cc2-c2ccncc2)c1
growth at 0.1 µM [1]: 97% | IC50 [2]: 0.37 µM | GI50 ([2]; read-out: GI50): 0.372 µM | CC50 [2, 32]: 3.48 µM | TGI ([2]; read-out: TGI): 4.68 µM | GI50 ([2]; read-out: pGI50 (converted)): 0.372 µM | CC50 [2, 33]: 34.7 µM | TGI ([2]; read-out: pTGI (converted)): 4.68 µM | growth at 0.1 µM [3]: 105% | IC50 [4]: 0.77 µM | GI50 ([4]; read-out: GI50): 0.77 µM | CC50 [4, 32]: 0.0412 µM | TGI ([4]; read-out: TGI): 5.75 µM | GI50 ([4]; read-out: pGI50 (converted)): 0.776 µM | CC50 [4, 33]: 41.7 µM | TGI ([4]; read-out: pTGI (converted)): 5.75 µM | IC50 [5]: 0.36 µM | GI50 ([5]; read-out: GI50): 0.357 µM | CC50 [5, 32]: 0.0532 µM | TGI ([5]; read-out: TGI): 1.5 µM | GI50 ([5]; read-out: pGI50 (converted)): 0.355 µM | CC50 [5, 33]: 5.37 µM | TGI ([5]; read-out: pTGI (converted)): 1.51 µM | growth at 0.1 µM [6]: 80% | growth at 1 µM [7]: 22% | growth at 0.01 µM [8]: 103% | growth at 0.1 µM [9]: 105% | growth at 0.01 µM [10]: 98% | growth at 1 µM [11]: 18% | growth at 0.1 µM [12]: 95% | growth at 1 µM [13]: 37% | growth at 1 µM [14]: 17% | growth at 1 µM [15]: 38% | growth at 100 µM [16]: -82% | growth at 1 µM [17]: 7% | IC50 [18]: 0.33 µM | GI50 ([18]; read-out: GI50): 0.37 µM | LC50 ([18]; read-out: LC50): > 100 µM | TGI ([18]; read-out: TGI): 3.24 µM | GI50 ([18]; read-out: pGI50 (converted)): 0.324 µM | LC50 ([18]; read-out: pLC50 (converted)): > 100 µM | TGI ([18]; read-out: pTGI (converted)): 3.24 µM | growth at 1 µM [19]: 15% | growth at 0.1 µM [20]: 69% | growth at 0.1 µM [21]: 95% | growth at 100 µM [22]: -71% | growth at 0.1 µM [23]: 105% | growth at 100 µM [24]: -70% | growth at 0.01 µM [25]: 94% | growth at 0.01 µM [26]: 89% | growth at 0.01 µM [27]: 102% | growth at 1 µM [28]: 49% | growth at 100 µM [29]: -83% | growth at 0.01 µM [30]: 103% | growth at 0.01 µM [31]: 71%
